Patent US10934310B2, “Inhibitors of Bruton's tyrosine kinase and method of their use” (JANSSEN PHARMACEUTICA NV, priority 2015, dated 2021)

target: unphosphorylated-BTK kinase domain (UP-BTK), GST-tagged human BTK (389-659aa) (Homo sapiens (Human), UniProt Q06187); assay: BTK Kinase Lanthascreen Binding Assay; details: compound, 50 nM Tracer 236, 2 nM anti-GST antibody, 60 minutes; pIC50 = negative log of the IC50 in molar
Description: BTK Kinase Lanthascreen Binding Assay:
A BTK kinase lanthascreen binding assay monitors compound binding to unphosphorylated-BTK kinase domain (UP-BTK), by competing with a fluorescent labeled tracer. […] Data were analyzed using Xlfit™ version 5.3 from ID Business Solutions (Guildford), Microsoft Excel add-in. pIC50 refers to the negative log of the IC50 in molar.

unphosphorylated-BTK kinase domain (UP-BTK), GST-tagged human BTK (389-659aa), sequence (Q06187 389-659): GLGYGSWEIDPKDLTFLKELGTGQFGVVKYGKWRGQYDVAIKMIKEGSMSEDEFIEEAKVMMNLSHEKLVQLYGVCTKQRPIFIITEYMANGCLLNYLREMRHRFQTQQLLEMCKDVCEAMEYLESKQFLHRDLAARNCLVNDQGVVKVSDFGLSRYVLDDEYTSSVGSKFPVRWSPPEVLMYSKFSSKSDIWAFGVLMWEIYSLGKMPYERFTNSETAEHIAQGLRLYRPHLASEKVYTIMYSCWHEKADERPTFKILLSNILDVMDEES

Row | BTK_I_binding pIC50 | SMILES
1 | 7.62 | C=CC(=O)N[C@@H]1CC[C@H](NC(=O)c2sc3nccc4c3c2NC(=O)N4c2ccc(OC(C)C)cc2C)C1 (single isomer, unassigned) [Example 186, N-((1S,3R)-3-Acrylamidocyclopentyl)-5-(*R)-(4-isopropoxy-2-methylphenyl)-4-oxo-4,5-dihydro-3H-1-thia-3,5,8-triazaacenaphthylene-2-carboxamide]
2 | 7.55 | CC(=O)N[C@@H]1CCC[C@@H](NC(=O)c2sc3nccc4c3c2NC(=O)N4c2ccc(Oc3ccccc3)cc2C)C1 (single isomer, unassigned) [Example 195, N-((1R,3R)-3-Acetamidocyclohexyl)-5-(*S)-(2-methyl-4-phenoxyphenyl)-4-oxo-4,5-dihydro-3H-1-thia-3,5,8-triazaacenaphthylene-2-carboxamide]
3 | 7.12 | C=CC(=O)N[C@H]1CC[C@@H](NC(=O)c2sc3nccc4c3c2NC(=O)N4c2ccc(Oc3ccccc3)cc2C)C1 (single isomer, unassigned) [Example 196, N-((1R,3S)-3-Acrylamidocyclopentyl)-5-(*S)-(2-methyl-4-phenoxyphenyl)-4-oxo-4,5-dihydro-3H-1-thia-3,5,8-triazaacenaphthylene-2-carboxamide]
4 | 8.18 | C=CC(=O)N[C@@H]1CCC[C@H]1NC(=O)c1sc2nccc3c2c1NC(=O)N3c1cnc(Oc2ccccc2)cc1C (single isomer, unassigned) [Example 200, N-((1R,2R)-2-Acrylamidocyclopentyl)-5-(*S)-(4-methyl-6-phenoxypyridin-3-yl)-4-oxo-4,5-dihydro-3H-1-thia-3,5,8-triazaacenaphthylene-2-carboxamide]
5 | 7.31 | C=CC(=O)N[C@H]1CCCC[C@H]1NC(=O)c1sc2nccc3c2c1NC(=O)N3c1ccc(OC(C)C)nc1C (single isomer, unassigned) [Example 209, N-((1R,2S)-2-Acrylamidocyclohexyl)-5-(*S)-(6-isopropoxy-2-methylpyridin-3-yl)-4-oxo-4,5-dihydro-3H-1-thia-3,5,8-triazaacenaphthylene-2-carboxamide]
6 | 7.19 | Cc1cc(Oc2ccccc2)ncc1N1C(=O)Nc2c(C(=O)N[C@@H]3CCC[C@@H]3NC(=O)CCCl)sc3nccc1c23 (single isomer, unassigned) [Example 210, N-((1R,2S)-2-(3-Chloropropanamido)cyclopentyl)-5-(*S)-(4-methyl-6-phenoxypyridin-3-yl)-4-oxo-4,5-dihydro-3H-1-thia-3,5,8-triazaacenaphthylene-2-carboxamide]
7 | 7.30 | C=CC(=O)N[C@@H]1CCCC[C@H]1NC(=O)c1sc2nccc3c2c1NC(=O)N3c1cnc(Oc2ccccc2)cc1C (single isomer, unassigned) [Example 213, N-((1R,2R)-2-Acrylamidocyclohexyl)-5-(*S)-(4-methyl-6-phenoxypyridin-3-yl)-4-oxo-4,5-dihydro-3H-1-thia-3,5,8-triazaacenaphthylene-2-carboxamide]
8 | 7.94 | C=CC(=O)N[C@@H]1CCC[C@H]1NC(=O)c1sc2nccc3c2c1NC(=O)N3c1cnc(Oc2ccccc2)nc1C (single isomer, unassigned) [Example 219, N-((1R,2R)-2-Acrylamidocyclopentyl)-5-(*S)-(4-methyl-2-phenoxypyrimidin-5-yl)-4-oxo-4,5-dihydro-3H-1-thia-3,5,8-triazaacenaphthylene-2-carboxamide]
9 | 6.85 | C=CC(=O)N[C@H]1CC[C@H](NC(=O)c2sc3nccc4c3c2NC(=O)N4c2ccc(Oc3ccccc3)cc2C)C1 (single isomer, unassigned) [Example 226, N-((1S,3S)-3-Acrylamidocyclopentyl)-5-(*S)-(2-methyl-4-phenoxyphenyl)-4-oxo-4,5-dihydro-3H-1-thia-3,5,8-triazaacenaphthylene-2-carboxamide]
10 | 7.24 | Cc1cc(Oc2ccccc2)ccc1N1C(=O)Nc2c(C(=O)N[C@H]3CCC[C@@H](N)C3)sc3nccc1c23 (single isomer, unassigned) [Example 230, N-((1S,3R)-3-Aminocyclohexyl)-5-(*S)-(2-methyl-4-phenoxyphenyl)-4-oxo-4,5-dihydro-3H-1-thia-3,5,8-triazaacenaphthylene-2-carboxamide]
11 | 6.56 | C=CC(=O)N[C@H]1CCC[C@H](NC(=O)c2sc3nccc4c3c2NC(=O)N4c2ccc(Oc3ccccc3)cc2C)C1 (single isomer, unassigned) [Example 231, N-((1S,3S)-3-Acrylamidocyclohexyl)-5-(*S)-(2-methyl-4-phenoxyphenyl)-4-oxo-4,5-dihydro-3H-1-thia-3,5,8-triazaacenaphthylene-2-carboxamide]
12 | 6.85 | Cc1cc(Oc2ccccc2)ncc1N1C(=O)Nc2c(C(=O)N[C@@H]3CCC[C@H]3N)sc3nccc1c23 (single isomer, unassigned) [Example 233]
13 | 6.56 | C=CC(=O)N[C@H]1CCC[C@@H](NC(=O)c2sc3nccc4c3c2NC(=O)N4c2ccc(Oc3ccccc3)cc2C)C1 (single isomer, unassigned) [Example 237, N-((1R,3S)-3-Acrylamidocyclohexyl)-5-(*S)-(2-methyl-4-phenoxyphenyl)-4-oxo-4,5-dihydro-3H-1-thia-3,5,8-triazaacenaphthylene-2-carboxamide]
14 | 6.95 | C=CC(=O)N[C@H]1CCCC[C@H]1NC(=O)c1sc2nccc3c2c1NC(=O)N3c1ccc(OC(C)C)nc1C (single isomer, unassigned) [Example 238, N-((1R,2S)-2-Acrylamidocyclohexyl)-5-(*R)-(6-isopropoxy-2-methylpyridin-3-yl)-4-oxo-4,5-dihydro-3H-1-thia-3,5,8-triazaacenaphthylene-2-carboxamide]
15 | 6.72 | Cc1cc(Oc2ccccc2)ccc1N1C(=O)Nc2c(C(=O)N[C@@H]3CC[C@H](N)C3)sc3nccc1c23 (single isomer, unassigned) [Example 240, N-((1R,3S)-3-Aminocyclopentyl)-5-(*S)-(2-methyl-4-phenoxyphenyl)-4-oxo-4,5-dihydro-3H-1-thia-3,5,8-triazaacenaphthylene-2-carboxamide]
16 | 7.26 | CC(=O)N[C@H]1CC[C@H](NC(=O)c2sc3nccc4c3c2NC(=O)N4c2ccc(Oc3ccccc3)cc2C)C1 (single isomer, unassigned) [Example 241, N-((1S,3S)-3-Acetamidocyclopentyl)-5-(*S)-(2-methyl-4-phenoxyphenyl)-4-oxo-4,5-dihydro-3H-1-thia-3,5,8-triazaacenaphthylene-2-carboxamide]
17 | 6.85 | CC(=O)N[C@H]1CCC[C@H](NC(=O)c2sc3nccc4c3c2NC(=O)N4c2ccc(Oc3ccccc3)cc2C)C1 (single isomer, unassigned) [Example 243, N-((1S,3S)-3-Acetamidocyclohexyl)-5-(*S)-(2-methyl-4-phenoxyphenyl)-4-oxo-4,5-dihydro-3H-1-thia-3,5,8-triazaacenaphthylene-2-carboxamide]
18 | 6.66 | CC(=O)N[C@H]1CC[C@@H](NC(=O)c2sc3nccc4c3c2NC(=O)N4c2ccc(Oc3ccccc3)cc2C)C1 (single isomer, unassigned) [Example 244, N-((1R,3S)-3-Acetamidocyclopentyl)-5-(*S)-(2-methyl-4-phenoxyphenyl)-4-oxo-4,5-dihydro-3H-1-thia-3,5,8-triazaacenaphthylene-2-carboxamide]
19 | 6.66 | Cc1cc(Oc2ccccc2)ccc1N1C(=O)Nc2c(C(=O)N[C@H]3CCC[C@H](N)C3)sc3nccc1c23 (single isomer, unassigned) [Example 247, N-((1S,3S)-3-Aminocyclohexyl)-5-(*S)-(2-methyl-4-phenoxyphenyl)-4-oxo-4,5-dihydro-3H-1-thia-3,5,8-triazaacenaphthylene-2-carboxamide]

Row | SMILES | BTK_I_binding pIC50
20 | C=CC(=O)N[C@@H]1CCC[C@H](NC(=O)c2sc3nccc4c3c2NC(=O)N4c2ccc(OC(C)C)cc2C)C1 (single isomer, unassigned) [Example 190, N-((1S,3R)-3-Acrylamidocyclohexyl)-5-(*R)-(4-isopropoxy-2-methylphenyl)-4-oxo-4,5-dihydro-3H-1-thia-3,5,8-triazaacenaphthylene-2-carboxamide] | 7.10
21 | C=CC(=O)N[C@H]1CCCC[C@H]1NC(=O)c1sc2nccc3c2c1NC(=O)N3c1ccc(OC2CCC2)nc1C (single isomer, unassigned) [Example 204, N-((1R,2S)-2-Acrylamidocyclohexyl)-5-(*S)-(6-cyclobutoxy-2-methylpyridin-3-yl)-4-oxo-4,5-dihydro-3H-1-thia-3,5,8-triazaacenaphthylene-2-carboxamide] | 8.03
22 | C=CC(=O)N[C@@H]1CCC[C@@H](NC(=O)c2sc3nccc4c3c2NC(=O)N4c2ccc(OC(C)C)cc2C)C1 (single isomer, unassigned) [Example 215, N-((1R,3R)-3-Acrylamidocyclohexyl)-5-(*R)-(4-isopropoxy-2-methylphenyl)-4-oxo-4,5-dihydro-3H-1-thia-3,5,8-triazaacenaphthylene-2-carboxamide] | 7.13
23 | C=CC(=O)N[C@H]1CCCC[C@H]1NC(=O)c1sc2nccc3c2c1NC(=O)N3c1cnc(OC2CCC2)cc1C (single isomer, unassigned) [Example 221, N-((1R,2S)-2-Acrylamidocyclohexyl)-5-(*S)-(6-cyclobutoxy-4-methylpyridin-3-yl)-4-oxo-4,5-dihydro-3H-1-thia-3,5,8-triazaacenaphthylene-2-carboxamide] | 8.29
24 | C=CC(=O)N[C@H]1CCCC[C@H]1NC(=O)c1sc2nccc3c2c1NC(=O)N3c1ccc(OC2CCC2)nc1C (single isomer, unassigned) [Example 242, N-((1R,2S)-2-Acrylamidocyclohexyl)-5-(*R)-(6-cyclobutoxy-2-methylpyridin-3-yl)-4-oxo-4,5-dihydro-3H-1-thia-3,5,8-triazaacenaphthylene-2-carboxamide] | 7.04
